In PMC11882969 (Nature Communications, 2025):
Several values for one entry are separate records, joined by “and”; a condition that tells them apart may be missing. Equal values may be shown once.

Assays:
[1] = biological target: T1, hCB2 (Homo sapiens, UniProt P34972); test: Cerep HTRF cAMP inhibition assay, hCB2 CHO-K1; assay type: cell-based; design: host or cells: HEK293SL cells, transient PEI transfection; settings: for functional response, concentration-response point (FigS7d): replicate columns;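 as to all read-outs here: compounds incubated 30 min at 37 °C with hCB2 CHO-K1 cells, cAMP detected by HTRF, HBSS as basal and reference agonist as stimulated control, run in triplicate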
T1 sequence (P34972 whole entry): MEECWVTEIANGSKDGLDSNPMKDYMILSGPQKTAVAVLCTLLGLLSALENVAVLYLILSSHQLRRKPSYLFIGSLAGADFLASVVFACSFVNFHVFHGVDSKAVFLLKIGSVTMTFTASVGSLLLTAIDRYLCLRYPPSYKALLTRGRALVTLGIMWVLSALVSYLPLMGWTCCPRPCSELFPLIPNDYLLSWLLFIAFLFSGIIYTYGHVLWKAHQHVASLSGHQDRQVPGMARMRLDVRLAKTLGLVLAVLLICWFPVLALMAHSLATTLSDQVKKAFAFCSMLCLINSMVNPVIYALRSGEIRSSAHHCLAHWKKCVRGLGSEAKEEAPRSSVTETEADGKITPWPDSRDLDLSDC
Description: (§1) The hCB1/2 CHO-K1 cells (ATCC: CCL-61) are suspended in HBSS buffer (Invitrogen) complemented with 20 mM HEPES (pH 7.4), then distributed in microplates at a density of 5.103 cells/well in the presence of either of the following: HBSS (basal control), the reference agonist (stimulated control) or the test compounds. […] Following 30 min incubation at 37 °C, the cells are lysed, and the fluorescence acceptor (D2-labeled cAMP) and fluorescence donor (anti-cAMP antibody labeled with europium cryptate) are added. […] Each measurement was done in triplicate.

[2] = biological target: T2, hCB1 (Homo sapiens, UniProt P21554); test: Cerep HTRF cAMP inhibition assay, hCB1 CHO-K1; assay type: cell-based; design: host or cells: HEK293SL cells, transient PEI transfection
T2 sequence (P21554 whole entry): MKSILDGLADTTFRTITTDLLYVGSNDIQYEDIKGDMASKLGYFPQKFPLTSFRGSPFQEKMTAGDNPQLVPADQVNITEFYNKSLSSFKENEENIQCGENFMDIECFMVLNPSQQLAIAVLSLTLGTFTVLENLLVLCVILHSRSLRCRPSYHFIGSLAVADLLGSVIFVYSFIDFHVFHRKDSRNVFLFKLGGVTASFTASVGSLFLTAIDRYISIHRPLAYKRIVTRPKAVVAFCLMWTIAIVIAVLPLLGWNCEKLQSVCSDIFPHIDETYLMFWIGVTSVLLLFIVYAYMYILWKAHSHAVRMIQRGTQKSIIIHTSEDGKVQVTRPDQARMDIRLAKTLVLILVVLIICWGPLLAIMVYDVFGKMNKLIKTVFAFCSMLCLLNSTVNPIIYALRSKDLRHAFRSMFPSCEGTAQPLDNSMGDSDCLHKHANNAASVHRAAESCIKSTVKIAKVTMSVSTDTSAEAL
Description: as §1

[3] = biological target: T2, hCB1; test: DiscoverX PathHunter β-arrestin-2 recruitment; assay type: cell-based; settings: individual replicates;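 also: CHO-K1 cells expressing hCB1, agonist mode, compound exposure with 1% vehicle, chemiluminescence read-out of the β-arrestin-2 recruitment signal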
[4] = biological target: T2, hCB1; test: Tango β-arrestin-2 recruitment, HTLA cells, CB1R; assay type: cell-based; design: expressed in transfected cells; host or cells: HTLA cells (gift of R. Axel), transient transfection; settings: Log[drug]
[5] = biological target: T1, hCB2; test: Tango β-arrestin-2 recruitment, HTLA cells, CB2R; assay type: cell-based; design: expressed in transfected cells; host or cells: HEK293 cells stably expressing human CB2R (Laboratory of Ken Mackie); settings: hCB2
Description: The Tango β-arrestin-2 recruitment assays were performed as described[83]. In brief, HTLA cells (a gift from the laboratory of R. Axel) were transiently transfected with human CB1R or CB2R Tango DNA construct overnight in DMEM supplemented with 10 % FBS, 100 µg ml−1 streptomycin and 100 U ml−1 penicillin. The transfected cells were then plated into poly-L-lysine-coated 384-well white clear-bottom cell culture plates in DMEM containing 1% dialysed FBS at a density of 10,000–15,000 cells per well. After incubation for 6 h, the plates were added with drug solutions prepared in DMEM containing 1% dialysed FBS for overnight incubation. On the day of assay, medium and drug solutions were removed and 20 µl per well of BrightGlo reagent (Promega) was added. The plates were further incubated for 20 min at room temperature and counted using the Wallac TriLux Microbeta counter (PerkinElmer). The results were analysed using GraphPad Prism 9. Each experiment was performed in triplicate and functional IC50 values were determined from the mean of three independent experiments.

[6] = biological target: CB1 (rCB1) (Rattus norvegicus, UniProt P20272); test: Radioligand competition binding, [3H]-CP-55,940, rat brain membranes; settings: rCB1
CB1 (rCB1), sequence (P20272 whole entry): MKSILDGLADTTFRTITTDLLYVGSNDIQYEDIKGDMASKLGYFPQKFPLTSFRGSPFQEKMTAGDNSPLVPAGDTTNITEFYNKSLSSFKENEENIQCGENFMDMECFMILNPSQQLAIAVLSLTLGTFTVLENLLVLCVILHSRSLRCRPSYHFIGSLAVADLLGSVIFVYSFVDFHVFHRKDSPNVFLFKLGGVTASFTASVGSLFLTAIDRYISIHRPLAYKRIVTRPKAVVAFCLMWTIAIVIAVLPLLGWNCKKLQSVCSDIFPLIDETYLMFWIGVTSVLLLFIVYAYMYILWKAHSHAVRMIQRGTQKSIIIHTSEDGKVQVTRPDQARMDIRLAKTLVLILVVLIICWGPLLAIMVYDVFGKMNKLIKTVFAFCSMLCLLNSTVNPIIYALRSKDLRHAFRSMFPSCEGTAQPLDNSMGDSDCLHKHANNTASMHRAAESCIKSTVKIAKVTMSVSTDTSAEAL

[7] = biological target: T1, hCB2; test: TRUPATH BRET2 GoA dissociation, HEK293T; assay type: cell-based; design: expressed in transfected cells; host or cells: HEK293T cells (ATCC: CRL-3216), transient co-transfection; settings: Log[drug], replicate columns

## Cc1cc(C(=O)N2CC3(CCC3)C2C2CCCO2)nn1-c1cccc(C(F)(F)F)c1 (centres unmarked) [‘3737]
[1]; CHO-K1, hCB2
  Emax: 45%
[1]; Concentration [M] 1e-12
  functional response, concentration-response point (FigS7d): -30 and 18.5 and 4.6
[1]; Concentration [M] 1e-11
  functional response, concentration-response point (FigS7d): 15.9 and 16.3 and 22.7
[1]; Concentration [M] 1e-10
  functional response, concentration-response point (FigS7d): 3.3 and 8.5 and 15.6
[1]; Concentration [M] 1e-9
  functional response, concentration-response point (FigS7d): 40.4 and -11.1 and 23.4
[1]; Concentration [M] 1e-8
  functional response, concentration-response point (FigS7d): 41.2 and 37.3 and 34.7
[1]; Concentration [M] 1e-7
  functional response, concentration-response point (FigS7d): 47.6 and 60.7 and 69.2
[1]; Concentration [M] 1e-6
  functional response, concentration-response point (FigS7d): 52.3 and 67.9 and 43.7
[1]; Concentration [M] 1e-5
  functional response, concentration-response point (FigS7d): 46.2 and 40.4 and 47.6
[1]; hCB2
  Cerep cAMP pEC50: 8.4 [7.7 – 12.5]
  EC50: 4.3 nM
[2]; CHO-K1
  Emax: 99%
[2]; hCB1
  Cerep cAMP pEC50: 6.5 [6.0 – 6.8]
  EC50: 326 nM
[3]; log[M] = -5
  response at log[M] -5 (FigS4f): 2.937 and 3.369
[3]; log[M] = -5.47712
  response at log[M] -5.47712 (FigS4f): 2.132 and 1.959
[3]; log[M] = -5.95424
  response at log[M] -5.95424 (FigS4f): 0.8089 and 2.3908
[3]; log[M] = -6.43136
  response at log[M] -6.43136 (FigS4f): 0.2049 and 1.2691
[3]; log[M] = -6.90849
  response at log[M] -6.90849 (FigS4f): -0.5141 and 0.32
[3]; log[M] = -7.38561
  response at log[M] -7.38561 (FigS4f): 0.003595 and 0.06112
[3]; log[M] = -7.86273
  response at log[M] -7.86273 (FigS4f): 0.32 and 0.4063
[3]; log[M] = -8.33985
  response at log[M] -8.33985 (FigS4f): 0.003595 and -0.3703
[3]; log[M] = -8.81697
  response at log[M] -8.81697 (FigS4f): 0.2049 and 0.8664
[3]; log[M] = -9.29409
  response at log[M] -9.29409 (FigS4f): -0.4278 and -0.5141
[4]; M = -4.52
  response, replicate values of concentration-response curve (FigS7f): 16.1787 and -30.1888 and -21.8736 and -37.3037 and -30.7086 and -43.6201 and -17.4903 and -7.002 and -28.2206 and 69.1202 and 86.7632
[4]; M = -5
  response, replicate values of concentration-response curve (FigS7f): 10.5 and 4.251 and -11.4922 and -24.0074 and 39.1171 and 4.908 and -25.6442 and 7.194 and 4.112 and 35.3652 and 54.7761
[4]; M = -5, individual replicates
  response at Log[drug], M -5 (FigS4e): 1.604 and 1.6378 and -0.1263 and 3.554 and -1.645 and -3.332 and -3.586 and -3.254 and -1.133 and -2.551 and -0.4401 and -2.2823
[4]; M = -5.52
  response, replicate values of concentration-response curve (FigS7f): -34.1436 and -19.4525 and -21.2651 and -33.8536 and -16.1649 and -20.5572 and -2.476 and -19.5818 and -27.1597 and -5.334 and 9.411
[4]; M = -5.52, individual replicates
  response at Log[drug], M -5.52 (FigS4e): 3.364 and 3.2967 and 3.89 and 5.267 and -2.445 and -3.368 and -3.286 and -3.18 and -0.5298 and -0.4645 and -2.331 and -1.157
[4]; M = -6
  response, replicate values of concentration-response curve (FigS7f): 47.6523 and 12.1859 and 4.34 and -19.6283 and -3.001 and -0.2146 and 2.4245 and 18.2472 and 13.6095 and 40.7237 and 38.7735
[4]; M = -6, individual replicates
  response at Log[drug], M -6 (FigS4e): 5.688 and 6.311 and 5.608 and 6.012 and -1.436 and -3.213 and -2.355 and -0.1315 and -0.6439 and -0.4319 and -1.117 and -0.5542
[4]; M = -6.52
  response, replicate values of concentration-response curve (FigS7f): 26.7755 and 17.066 and 0.4863 and -24.0472 and -30.3238 and -3.24 and 14.0743 and -8.114 and 32.4836 and -15.0304 and -19.0948
[4]; M = -6.52, individual replicates
  response at Log[drug], M -6.52 (FigS4e): 5.756 and 5.2335 and 6.796 and 5.427 and -1.042 and -1.74 and -1.178 and 0.9023 and 2.299 and 1.818 and -0.3423 and 0.155
[4]; M = -7
  response, replicate values of concentration-response curve (FigS7f): 34.9133 and -3.95 and -16.1188 and -35.3 and 25.4625 and -10.8968 and -21.6834 and 6.2943 and 0.9695 and -12.3146 and 7.534
[4]; M = -7, individual replicates
  response at Log[drug], M -7 (FigS4e): 8.884 and 5.924 and 8.758 and 7.292 and -0.04536 and -0.9069 and -0.4556 and -0.1931 and 0.8804 and 2.804 and 1.011 and 0.1957
[4]; M = -7.52
  response, replicate values of concentration-response curve (FigS7f): -5.053 and -15.3203 and -3.0249 and -6.279 and -50.5337 and -10.2997 and -15.5807 and -8.983 and -20.2588 and 4.854 and 34.2352
[4]; M = -7.52, individual replicates
  response at Log[drug], M -7.52 (FigS4e): 9.415 and 8.198 and 9.343 and 6.627 and -1.362 and -1.444 and -1.617 and 0.25 and 3.66 and 1.117 and 0.375 and 3.994
[4]; M = -8, individual replicates
  response at Log[drug], M -8 (FigS4e): 8.737 and 7.057 and 9.276 and 8.661 and -0.8249 and 2.133 and -0.7879 and -0.8084 and 1.019 and 1.329 and 1.361 and 1.467
[4]; M = -8.52, individual replicates
  response at Log[drug], M -8.52 (FigS4e): 12.5705 and 14.1572 and 15.386 and 12.0363 and 0.2264 and -0.5023 and 0.2681 and 0.2421 and 3.757 and 10.0248 and 2.888 and 3.985
[4]; M = -9
  response, replicate values of concentration-response curve (FigS7f): 8.713
[4]; M = -9, individual replicates
  response at Log[drug], M -9 (FigS4e): 14.7823 and 12.9338 and 10.7167 and 15.0494 and -0.7053 and 1.382 and -0.9032 and 2.064 and 3.902 and 4.367 and 2.588 and 2.216
[4]; M = -9.52
  response, replicate values of concentration-response curve (FigS7f): -15.5865 and 2.109 and -19.0089 and -14.201 and 8.65 and -30.6423 and 15.2767 and -7.75 and 4.87 and -25.5104 and 1.592
[4]; M = -9.52, individual replicates
  response at Log[drug], M -9.52 (FigS4e): 13.1261 and 12.6453 and 12.7896 and 11.1868 and 3.428 and 1.32 and 2.251 and 2.397 and 2.423 and 1.937 and 2.288 and 2.144
[4]; M = -10
  response, replicate values of concentration-response curve (FigS7f): -11.9485 and -4.635 and -5.484 and 10.0562 and 9.379 and -4.05 and 21.9756 and 8.952 and 10.1035 and -36.3186 and 8.518
[4]; M = -10, individual replicates
  response at Log[drug], M -10 (FigS4e): 11.8653 and 11.8119 and 13.3986 and 14.0664 and 1.366 and 1.523 and 1.018 and -1.502 and 5.629 and 3.467 and 5.091 and 7.656
[4]; M = -10.52, individual replicates
  response at Log[drug], M -10.52 (FigS4e): 14.5419 and 16.8873 and 18.068 and 18.8961 and 0.7314 and -0.5544 and 7.931 and 2.309 and 2.226 and 3.798 and 2.154 and 1.523
[4]; M = -11, individual replicates
  response at Log[drug], M -11 (FigS4e): 12.4743 and 12.4476 and 8.323 and 8.772 and 2.428 and 1.528 and 2.267 and 2.496 and 5.774 and 4.76 and 2.712 and 3.85
[4]; M = -11.52, individual replicates
  response at Log[drug], M -11.52 (FigS4e): 6.5336 and 8.19 and 7.298 and 6.6351 and 3.735 and 0.95 and 2.715 and 0.09109 and 2.743 and 1.926 and 0.799 and -0.6593
[4]; M = -12, individual replicates
  response at Log[drug], M -12 (FigS4e): -0.6945 and 1.426 and -1.629 and 0.8975 and 0.8147 and 0.1796 and -0.8095 and -0.1848 and 0.03361 and 0.3025 and -0.05947 and -0.2767
[5]; HTLA, read-out: Tango ß-arrestin recruitment Emax
  Emax: 9%
[5]
  Tango ß-arrestin recruitment pEC50: 5.8 [5.7 – 5.9]
[5]; read-out: Tango ß-arrestin recruitment EC50
  EC50: 1500 nM
[6]
  pKi [95% CI]: 6.76 [6.5 – 7.03]
[7]; M = -5
  functional response, concentration-response point (FigS7e, normalized): 7.15 and 0.08499 and 7.219 and 7.788 and 7.891 and 6.738 and 8.045 and 7.095 and 12.8638 and 12.2484 and 11.5588 and 11.0027
[7]; M = -5.52
  functional response, concentration-response point (FigS7e, normalized): 5.302 and 6.612 and 7.12 and 7.029 and 6.875 and 5.885 and 5.894 and 6.474 and 7.41 and 9.531 and 8.971 and 8.263
[7]; M = -6
  functional response, concentration-response point (FigS7e, normalized): 1.28 and 2.3503 and 2.331 and 3.337 and 2.385 and 1.616 and 1.676 and 1.052 and 3.161 and 3.087 and 4.085 and 2.086
[7]; M = -6.52
  functional response, concentration-response point (FigS7e, normalized): 0.8173 and 0.5745 and 0.009098 and 0.9653 and 0.9374 and 0.7056 and 0.8258 and 0.7943 and 1.033 and 1.163 and 0.8851 and 1.056
[7]; M = -7
  functional response, concentration-response point (FigS7e, normalized): 0.2747 and 0.06981 and 0.08878 and 0.8059 and -0.06126 and 0.2392 and 0.2936 and 0.4538 and 0.7999 and 0.4069 and 0.5552 and 0.6998
[7]; M = -7.52
  functional response, concentration-response point (FigS7e, normalized): 0.1912 and 0.08499 and -0.09335 and 0.658 and 0.6598 and 0.9202 and 0.07323 and 0.6226 and 0.2957 and 0.8814 and 0.5663 and 0.5329
[7]; M = -8
  functional response, concentration-response point (FigS7e, normalized): 0.324 and -0.4159 and -0.002285 and 0.1419 and 0.1305 and 0.7285 and 0.8 and 0.368 and 0.355 and 0.3476 and 0.5886 and 0.8221
[7]; M = -8.52
  functional response, concentration-response point (FigS7e, normalized): -0.4237 and 0.0337 and -0.52 and -0.4863 and 0.2451 and -0.1507 and 1.084 and 0.6009 and 0.6985 and 0.3222 and -0.007056 and 0.3034
[7]; M = -12
  functional response, concentration-response point (FigS7e, normalized): 0.3611 and 0.2552 and -0.6451 and 0.02889
